Active and inactive are the calls of the source.
What was measured:
[1] = target: T1, Ceramide glucosyltransferase (Mus musculus, UniProt O88693); experiment: Inhibition mouse glucosylceramide synthase
T1 sequence (O88693 whole entry): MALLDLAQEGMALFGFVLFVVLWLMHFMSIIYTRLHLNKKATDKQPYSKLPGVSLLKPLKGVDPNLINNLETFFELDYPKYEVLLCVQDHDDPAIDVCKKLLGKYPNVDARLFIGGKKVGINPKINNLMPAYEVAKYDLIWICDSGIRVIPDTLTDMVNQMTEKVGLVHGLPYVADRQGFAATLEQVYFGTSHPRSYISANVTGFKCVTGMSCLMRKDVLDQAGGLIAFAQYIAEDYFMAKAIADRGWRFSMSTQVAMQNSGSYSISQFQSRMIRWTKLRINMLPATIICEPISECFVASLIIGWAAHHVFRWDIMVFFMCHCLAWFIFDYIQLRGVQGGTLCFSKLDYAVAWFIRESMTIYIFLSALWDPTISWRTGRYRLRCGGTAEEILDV

Mus musculus [2] = experiment: Increase in very long and polyunsaturated glucosylceramide level in C57BL/6 mouse testes at 150 mg/kg/day administered with chow; assay type: functional, organism-based; conditions: Testis
Mus musculus [3] = experiment: Increase in glucosylceramide level in GBA2 deficient C57BL/6-129S1 mouse testes at 150 mg/kg/day administered with chow; assay type: functional, organism-based; conditions: Testis
Mus musculus [4] = experiment: Increase in glucosylceramide level in GBA2 deficient C57BL/6-129S1 mouse somatic cells at 150 mg/kg/day administered with chow; assay type: functional, organism-based
Mus musculus [5] = experiment: Increase in glucosylceramide level in GBA2 deficient C57BL/6-129S1 mouse germ cells at 150 mg/kg/day administered with chow; assay type: functional, organism-based
Mus musculus [6] = experiment: Effect on testicular ceramides level in C57BL/6 mouse at 150 mg/kg/day administered with chow; assay type: functional, organism-based
Mus musculus [7] = experiment: Effect on testicular sphingomyelin level in C57BL/6 mouse at 150 mg/kg/day administered with chow; assay type: functional, organism-based
Mus musculus [8] = experiment: Decrease in testicular very long chain polyunsaturated fatty acid sphingomyelin level in beta-glucosidase 2 deficient C57BL/6-129S1 mouse at 150 mg/kg/day administered with chow; assay type: functional, organism-based
Serum = experiment: Drug level in C57BL/6 mouse serum at 15 mg/kg/day assessed as enzyme activity; assay type: ADME, organism-based; conditions: in vivo, read-out: Drug uptake
Mus musculus [9] = experiment: Effect on spermatogenesis in C57BL/10 mouse assessed as morphological changes in spermatozoa at 15 mg/kg/day administered with chow; assay type: functional, organism-based
Mus musculus [10] = experiment: Effect on spermatogenesis in C57BL/6 mouse assessed as morphological changes in spermatozoa at 150 mg/kg/day administered with chow; assay type: functional, organism-based
Mus musculus [11] = experiment: Effect on spermatogenesis in C57BR mouse assessed as morphological changes in spermatozoa at 150 mg/kg/day administered with chow; assay type: functional, organism-based
Mus musculus [12] = experiment: Effect on spermatogenesis in BALB/c mouse assessed as morphological changes in spermatozoa at 150 mg/kg/day administered with chow; assay type: functional, organism-based
Mus musculus [13] = experiment: Effect on spermatogenesis in AKR mouse assessed as morphological changes in spermatozoa at 150 mg/kg/day administered with chow; assay type: functional, organism-based
Mus musculus [14] = experiment: Effect on spermatogenesis in MA/My mouse assessed as morphological changes in spermatozoa at 150 mg/kg/day administered with chow; assay type: functional, organism-based
Mus musculus [15] = experiment: Effect on spermatogenesis in NZW mouse assessed as morphological changes in spermatozoa at 150 mg/kg/day administered with chow; assay type: functional, organism-based
Mus musculus [16] = experiment: Effect on spermatogenesis in DBA2 mouse assessed as morphological changes in spermatozoa at 150 mg/kg/day administered with chow; assay type: functional, organism-based
Mus musculus [17] = experiment: Effect on spermatogenesis in C57BL/6-129S1 mouse assessed as morphological changes in spermatozoa at 150 mg/kg/day administered with chow; assay type: functional, organism-based
Mus musculus [18] = experiment: Effect on spermatogenesis in C3H mouse assessed as morphological changes in spermatozoa at 150 mg/kg/day administered with chow; assay type: functional, organism-based
Mus musculus [19] = experiment: Effect on spermatogenesis in FVB/N mouse assessed as morphological changes in spermatozoa at 15 mg/kg/day administered with chow; assay type: functional, organism-based
Mus musculus [20] = experiment: Effect on complex glycosylated sphingolipids level in C57BL/6 mouse testes at 15 to 50 mg/kg/day, po; assay type: functional, organism-based; conditions: Testis
Mus musculus [21] = experiment: Reduction of complex glycosylated sphingolipids level in C57BL/6 mouse testes at 2400 mg/kg/day administered with chow; assay type: functional; design: scale not given: the % may be the effect or the level left
Mus musculus [22] = experiment: Increase in complex glycosylated sphingolipids in C57BL/6 mouse testes at 5 mg/kg/day administered with chow; assay type: functional, Testis
Mus musculus [23] = experiment: Increase in complex glycosylated sphingolipids level in C57BL/6 mouse testes at 15 mg/kg/day administered with chow after 6 to 9 months; assay type: functional, organism-based; conditions: Testis
Mus musculus [24] = organism: Mus musculus; experiment: Increase in neutral glycolipids level in C57BL/6 mouse testes; assay type: functional, organism-based; conditions: Testis
Mus musculus [25] = organism: Mus musculus; experiment: Effect on glucosylceramide level in C57BL/6 mouse testes; assay type: functional, organism-based; conditions: Testis
Mus musculus [26] = experiment: Effect on glucosylceramide level in C57BL/6 mouse testes at 15 mg/kg/day administered with chow; assay type: functional, organism-based; conditions: Testis
Mus musculus [27] = experiment: Increase in glucosylceramide level in C57BL/6 mouse testes at 300 mg/kg/day administered with chow; assay type: functional, organism-based; conditions: Testis
Mus musculus [28] = experiment: Increase in glucosylceramide level in C57BL/6 mouse spleen administered with chow; assay type: functional, organism-based
Mus musculus [29] = experiment: Increase in glucosylceramide level in C57BL/6 mouse liver administered with chow; assay type: functional, organism-based
Mus musculus [30] = experiment: Increase in glucosylceramide level in C57BL/6 mouse brain at 1200 mg/kg/day administered with chow; assay type: functional, organism-based
Mus musculus [31] = experiment: Increase in glucosylceramide level in C57BL/6 mouse testes administered with chow after 5 days; assay type: functional, organism-based; conditions: Testis
Mus musculus [32] = experiment: Increase in glucosylceramide level in C57BL/6 mouse testes administered with chow at 15 mg/kg/day after 3 to 12 months; assay type: functional, Testis
Mus musculus [33] = experiment: Increase in long and saturated glucosylceramide level in C57BL/6 mouse testes at 150 mg/kg/day administered with chow; assay type: functional, organism-based; conditions: Testis
Beta-glucosidase = target: T2, Beta-glucosidase (Homo sapiens, UniProt Q9HCG7); experiment: Inhibition of bile acid beta-glucosidase activity of human liver GBA2
T2 sequence (Q9HCG7 whole entry): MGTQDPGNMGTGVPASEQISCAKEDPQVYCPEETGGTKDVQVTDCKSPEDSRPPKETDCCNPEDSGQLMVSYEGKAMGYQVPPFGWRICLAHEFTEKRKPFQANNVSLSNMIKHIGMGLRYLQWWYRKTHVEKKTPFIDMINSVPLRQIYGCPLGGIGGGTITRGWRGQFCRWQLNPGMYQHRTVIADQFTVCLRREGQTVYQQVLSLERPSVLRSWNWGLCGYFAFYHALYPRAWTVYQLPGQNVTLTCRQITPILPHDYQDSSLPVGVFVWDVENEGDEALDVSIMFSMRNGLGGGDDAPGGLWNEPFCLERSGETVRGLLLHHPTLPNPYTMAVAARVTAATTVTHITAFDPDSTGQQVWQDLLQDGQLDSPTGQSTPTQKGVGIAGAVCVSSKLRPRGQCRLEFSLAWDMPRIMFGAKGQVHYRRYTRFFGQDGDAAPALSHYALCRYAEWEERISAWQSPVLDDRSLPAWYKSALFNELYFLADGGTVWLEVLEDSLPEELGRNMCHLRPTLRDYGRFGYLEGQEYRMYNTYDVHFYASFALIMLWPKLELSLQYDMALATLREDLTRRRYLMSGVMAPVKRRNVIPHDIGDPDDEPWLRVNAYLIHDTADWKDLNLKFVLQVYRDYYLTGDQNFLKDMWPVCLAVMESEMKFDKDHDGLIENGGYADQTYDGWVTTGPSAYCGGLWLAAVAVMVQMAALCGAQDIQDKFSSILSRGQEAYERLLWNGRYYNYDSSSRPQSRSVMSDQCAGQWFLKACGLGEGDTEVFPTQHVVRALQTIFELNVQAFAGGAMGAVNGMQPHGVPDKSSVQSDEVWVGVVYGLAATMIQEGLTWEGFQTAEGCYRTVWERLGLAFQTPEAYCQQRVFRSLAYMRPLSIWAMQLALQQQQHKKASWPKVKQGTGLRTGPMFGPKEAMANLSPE

CCCCN1[C@H](CO)[C@H](O)[C@H](O)[C@@H](O)[C@@H]1O
5.3 µM: IC50 [1]

CCCCN1C[C@H](O)[C@@H](O)[C@H](O)[C@H]1CO
active: Activity (Mus musculus [2]) | Activity (Mus musculus [3]) | Activity (Mus musculus [4]) | Activity (Mus musculus [5]) | Activity (Mus musculus [8]) | Activity (Mus musculus [9]) | Activity (Mus musculus [10]) | Activity (Mus musculus [11]) | Activity (Mus musculus [23]) | Activity (Mus musculus [24]) | Activity (Mus musculus [25]) Dose-dependent effect | Activity (Mus musculus [26]) | Activity (Mus musculus [27]) | Activity (Mus musculus [28]) | Activity (Mus musculus [30]) | Activity (Mus musculus [31]) | Activity (Mus musculus [33])
5: Activity (Mus musculus [32])
22%: Activity (Mus musculus [21])
inactive: Activity (Mus musculus [6]) | Activity (Mus musculus [7]) | Activity (Mus musculus [12]) | Activity (Mus musculus [13]) | Activity (Mus musculus [14]) | Activity (Mus musculus [15]) | Activity (Mus musculus [16]) | Activity (Mus musculus [17]) | Activity (Mus musculus [18]) | Activity (Mus musculus [19]) | Activity (Mus musculus [20]) | Activity (Mus musculus [29])
490 nM: concentration (Serum)
15%: Activity (Mus musculus [22])

CCCCCCCCCCCCN1C[C@H](O)[C@@H](O)[C@H](O)[C@H]1CO
0.002 µM: IC50 (Beta-glucosidase)

CCCCCCCCCOC(=O)N1C[C@H](O)[C@@H](O)[C@H](O)[C@H]1CO
0.02 µM: IC50 (Beta-glucosidase)

— ChEMBL document CHEMBL1156512, “Accumulation of glucosylceramide in murine testis, caused by inhibition of beta-glucosidase 2: implications for spermatogenesis” (J Biol Chem, 2007)
